According to PubChem BioAssay (NCI):
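Five compound concentrations were applied to cells in 96-well plates for 48 hours; endpoints were derived by simple linear interpolation of the resulting dose-response curve. At the TGI there is no net growth.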

How the values were obtained:
Assay in all cases: growth of human tumour cells (NCI), 48 h
NCI-H23 lung = tested on: NCI-H23 lung
HCT-15 colon = tested on: HCT-15 colon
CCRF-CEM leukemia = tested on: CCRF-CEM leukemia
EKVX NSCLC = tested on: EKVX NSCLC
ACHN renal = tested on: ACHN renal
CAKI-1 renal = tested on: CAKI-1 renal
MOLT-4 leukemia = tested on: MOLT-4 leukemia
T-47D breast = tested on: T-47D breast
RPMI-8226 leukemia = tested on: RPMI-8226 leukemia
786-0 renal = tested on: 786-0 renal
MDA-MB-231 breast = tested on: MDA-MB-231 breast
U251 CNS = tested on: U251 CNS
MCF7 breast = tested on: MCF7 breast
IGROV1 ovarian = tested on: IGROV1 ovarian
OVCAR-3 ovarian = tested on: OVCAR-3 ovarian
UO-31 renal = tested on: UO-31 renal
UACC-257 melanoma = tested on: UACC-257 melanoma
MALME-3M melanoma = tested on: MALME-3M melanoma
SK-MEL-5 melanoma = tested on: SK-MEL-5 melanoma
SR leukemia = tested on: SR leukemia
KM12 colon = tested on: KM12 colon
LOX IMVI melanoma = tested on: LOX IMVI melanoma
RXF 393 renal = tested on: RXF 393 renal
HOP-62 NSCLC = tested on: HOP-62 NSCLC
NCI-H522 lung = tested on: NCI-H522 lung
NCI/ADR-RES ovarian = tested on: NCI/ADR-RES ovarian
DU-145 prostate = tested on: DU-145 prostate
SW-620 colon = tested on: SW-620 colon
HCC-2998 colon = tested on: HCC-2998 colon
SK-MEL-2 melanoma = tested on: SK-MEL-2 melanoma
A498 renal = tested on: A498 renal
A549 NSCLC = tested on: A549 NSCLC
SF-268 CNS = tested on: SF-268 CNS
UACC-62 melanoma = tested on: UACC-62 melanoma
NCI-H460 lung = tested on: NCI-H460 lung
OVCAR-4 ovarian = tested on: OVCAR-4 ovarian
SNB-19 CNS = tested on: SNB-19 CNS
SK-OV-3 ovarian = tested on: SK-OV-3 ovarian
SN12C renal = tested on: SN12C renal
SK-MEL-28 melanoma = tested on: SK-MEL-28 melanoma
HL-60(TB) leukemia = tested on: HL-60(TB) leukemia
HS 578T breast = tested on: HS 578T breast
K-562 leukemia = tested on: K-562 leukemia
MDA-N = tested on: MDA-N
NCI-H226 lung = tested on: NCI-H226 lung
PC-3 prostate = tested on: PC-3 prostate
BT-549 breast = tested on: BT-549 breast
SF-295 CNS = tested on: SF-295 CNS
M14 melanoma = tested on: M14 melanoma
HT29 colon = tested on: HT29 colon
MDA-MB-435 = tested on: MDA-MB-435
OVCAR-5 ovarian = tested on: OVCAR-5 ovarian
SNB-75 CNS = tested on: SNB-75 CNS
HOP-92 NSCLC = tested on: HOP-92 NSCLC
OVCAR-8 ovarian = tested on: OVCAR-8 ovarian
HCT-116 colon = tested on: HCT-116 colon
COLO 205 colon = tested on: COLO 205 colon
TK-10 renal = tested on: TK-10 renal
SF-539 CNS = tested on: SF-539 CNS

For `CC(C)NC(=O)OCc1c(COC(=O)NC(C)C)n(C)c2c1ccc1ccsc12`, the TGI (NCI-H23 lung) was 21.8 µM, the TGI (HCT-15 colon) was 28.1 µM and the TGI (CCRF-CEM leukemia) was 7.31 µM. It also gave a TGI (EKVX NSCLC) of 48.1 µM, a TGI (ACHN renal) of 14.2 µM and a TGI (CAKI-1 renal) of 13.9 µM. The TGI (MOLT-4 leukemia) was 12.4 µM, the TGI (T-47D breast) was greater than 100 µM and the TGI (RPMI-8226 leukemia) was 20.3 µM. It also gave a TGI (786-0 renal) of 23.4 µM, a TGI (MDA-MB-231 breast) of 38.4 µM and a TGI (U251 CNS) of 35.8 µM. For the same compound, the TGI (MCF7 breast) was greater than 53.1 µM, the TGI (IGROV1 ovarian) was 53.3 µM and the TGI (OVCAR-3 ovarian) was 40 µM. The TGI (UO-31 renal) was 26.6 µM, the TGI (UACC-257 melanoma) was 31.7 µM and the TGI (MALME-3M melanoma) was 18.3 µM. For the same compound, the TGI (SK-MEL-5 melanoma) was 22.7 µM, the TGI (SR leukemia) was 8.45 µM and the TGI (KM12 colon) was 38.3 µM. For the same compound, the TGI (LOX IMVI melanoma) was 30 µM, the TGI (RXF 393 renal) was 21.1 µM and the TGI (HOP-62 NSCLC) was 55.9 µM. For the same compound, the TGI (NCI-H522 lung) was 21.5 µM, the TGI (NCI/ADR-RES ovarian) was 31.4 µM and the TGI (DU-145 prostate) was 27.4 µM. For the same compound, the TGI (SW-620 colon) was greater than 45 µM, the TGI (HCC-2998 colon) was 28.6 µM and the TGI (SK-MEL-2 melanoma) was 31.8 µM. The TGI (A498 renal) was 35.3 µM, the TGI (A549 NSCLC) was 47.4 µM and the TGI (SF-268 CNS) was 25.4 µM. For the same compound, the TGI (UACC-62 melanoma) was 22.9 µM, the TGI (NCI-H460 lung) was 21.2 µM and the TGI (OVCAR-4 ovarian) was 23.7 µM. The TGI (SNB-19 CNS) was 52.2 µM, the TGI (SK-OV-3 ovarian) was 69.6 µM and the TGI (SN12C renal) was 35.2 µM. The TGI (SK-MEL-28 melanoma) was 30 µM, the TGI (HL-60(TB) leukemia) was 9.93 µM and the TGI (HS 578T breast) was 48.5 µM. It also gave a TGI (K-562 leukemia) of 54.8 µM, a TGI (MDA-N) of 26.1 µM and a TGI (NCI-H226 lung) of 28.7 µM. The TGI (PC-3 prostate) was 39.9 µM, the TGI (BT-549 breast) was 28.4 µM and the TGI (SF-295 CNS) was greater than 81.4 µM. For the same compound, the TGI (M14 melanoma) was 22.5 µM, the TGI (HT29 colon) was 38.5 µM and the TGI (MDA-MB-435) was 25.3 µM. It also gave a TGI (OVCAR-5 ovarian) of 54.1 µM, a TGI (SNB-75 CNS) of 26.9 µM and a TGI (HOP-92 NSCLC) of 45.4 µM. It also gave a TGI (OVCAR-8 ovarian) of 40.5 µM, a TGI (HCT-116 colon) of 31.8 µM and a TGI (COLO 205 colon) of 26 µM. The TGI (TK-10 renal) was greater than 94.4 µM.

In the case of `CN(C)C=Nc1ccc2c3c(cccc13)-c1ccccc1-2`, the TGI (NCI-H23 lung) is reported as 32.9 µM, the TGI (HCT-15 colon) is reported as 24.1 µM and the TGI (CCRF-CEM leukemia) is reported as 17.2 µM. For the same compound, the TGI (EKVX NSCLC) was 22.4 µM, the TGI (ACHN renal) was 31.6 µM and the TGI (MOLT-4 leukemia) was 24.8 µM. It also gave a TGI (T-47D breast) of 31.3 µM, a TGI (RPMI-8226 leukemia) of 38.9 µM and a TGI (786-0 renal) of 26 µM. It also gave a TGI (MDA-MB-231 breast) of 28.2 µM, a TGI (U251 CNS) of 26.2 µM and a TGI (MCF7 breast) of 30.7 µM. It also gave a TGI (IGROV1 ovarian) of 28.8 µM, a TGI (OVCAR-3 ovarian) of 28.9 µM and a TGI (UO-31 renal) of 19.6 µM. It also gave a TGI (UACC-257 melanoma) of 31.9 µM, a TGI (MALME-3M melanoma) of 34.6 µM and a TGI (SK-MEL-5 melanoma) of 28.1 µM. The TGI (SR leukemia) was 26.3 µM, the TGI (LOX IMVI melanoma) was 28.3 µM and the TGI (RXF 393 renal) was 21 µM. For the same compound, the TGI (HOP-62 NSCLC) was 29.5 µM, the TGI (SF-539 CNS) was 24.5 µM and the TGI (NCI-H522 lung) was 18.8 µM. The TGI (NCI/ADR-RES ovarian) was 31.4 µM, the TGI (DU-145 prostate) was 25.7 µM and the TGI (SK-MEL-2 melanoma) was 31.1 µM. It also gave a TGI (A498 renal) of 21.7 µM, a TGI (A549 NSCLC) of 23.7 µM and a TGI (SF-268 CNS) of 26.8 µM. It also gave a TGI (UACC-62 melanoma) of 38.8 µM, a TGI (OVCAR-4 ovarian) of 31.6 µM and a TGI (SNB-19 CNS) of 27.4 µM. It also gave a TGI (SK-OV-3 ovarian) of 26.5 µM, a TGI (SN12C renal) of 25.1 µM and a TGI (SK-MEL-28 melanoma) of 31.9 µM. For the same compound, the TGI (HL-60(TB) leukemia) was 23.2 µM, the TGI (HS 578T breast) was 24.9 µM and the TGI (K-562 leukemia) was 22.1 µM. For the same compound, the TGI (MDA-N) was 27.6 µM, the TGI (NCI-H226 lung) was 22.8 µM and the TGI (PC-3 prostate) was 26.3 µM. The TGI (BT-549 breast) was 32 µM, the TGI (SF-295 CNS) was 27.9 µM and the TGI (M14 melanoma) was 22.1 µM. The TGI (HT29 colon) was 21.6 µM, the TGI (MDA-MB-435) was 28.3 µM and the TGI (OVCAR-5 ovarian) was 23.1 µM. For the same compound, the TGI (SNB-75 CNS) was 28.9 µM, the TGI (HOP-92 NSCLC) was 24.9 µM and the TGI (OVCAR-8 ovarian) was 29.8 µM. The TGI (HCT-116 colon) was 28.7 µM, the TGI (COLO 205 colon) was 30.9 µM and the TGI (TK-10 renal) was 26.7 µM.
